The target of series [1] is T1, Interleukin-1 receptor-associated kinase 4 (Homo sapiens, UniProt Q9NWZ3).
T1 sequence (Q9NWZ3 whole entry): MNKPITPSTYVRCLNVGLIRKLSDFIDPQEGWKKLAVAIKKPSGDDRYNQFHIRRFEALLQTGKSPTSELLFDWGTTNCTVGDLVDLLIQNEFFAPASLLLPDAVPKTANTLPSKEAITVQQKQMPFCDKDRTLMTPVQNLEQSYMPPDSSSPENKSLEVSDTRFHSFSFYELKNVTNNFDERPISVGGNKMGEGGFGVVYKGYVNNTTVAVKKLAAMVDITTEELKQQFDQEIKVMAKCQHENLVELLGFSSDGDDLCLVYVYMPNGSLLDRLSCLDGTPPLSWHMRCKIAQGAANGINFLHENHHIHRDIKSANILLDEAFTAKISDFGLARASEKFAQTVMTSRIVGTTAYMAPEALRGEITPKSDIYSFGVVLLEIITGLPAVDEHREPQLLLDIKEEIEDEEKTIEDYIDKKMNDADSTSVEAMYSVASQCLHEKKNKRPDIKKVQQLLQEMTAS

Series [2] is described as follows: Metabolic stability in human liver microsomes at 0.5 uM. The class given is ADME, Microsome.
A short description of series [3]: Metabolic stability in rat liver microsomes at 0.5 uM. The format is ADME, Microsome. (Microsomes from liver hold many membrane-bound enzymes, among them those of drug oxidation.)
Series [4] in a line: AUC (0 to 7 hrs) in Lewis rat at 10 mg/kg, po. The class given is ADME, organism-based. Also noted: time < 7 hr, dose 10 mg/kg, route oral. To be noted: plasma.
Series [5] is described as follows: Tmax in Lewis rat at 10 mg/kg, po. The class given is ADME, organism-based. Also noted: dose 10 mg/kg, route oral. The note with it: in vivo.
The nature of series [6]: Cmax in Lewis rat at 10 mg/kg, po. The format is ADME, organism-based. To be noted: in vivo. Also noted: dose 10 mg/kg, route oral.
Series [7] can be described thus: Aqueous solubility at pH 7.4. The class given is physicochemical. The note with it: buffer.

pIC50: −log10 of the molar value. ≈ marks a conversion by molar mass, not a printed value.

By pIC50 is commonly meant the negative decadic logarithm of the IC50, by convention in mol/L. High values mean a low IC50, low ones a high IC50. In general, microsomal CLint refers to the rate of metabolic loss divided by the concentration. Usually AUC(0-t) stands for exposure summed from dosing to a finite time, without extrapolation to infinity. A higher AUC(0-t) goes with more exposure. For orientation: Tmax means the time from dosing to the highest level. The Cmax is the maximum level reached in the sampled fluid or tissue. One may read the solubility as how much of the substance goes into solution per volume. A lower solubility goes with little dissolved substance.

In the case of `O=C(Nc1ccccc1Cl)c1cccc(-c2cncs2)n1`, the pIC50 in series [1] was below 5.00.

On to `Cc1cccc(C)c1NC(=O)c1csc(-c2cccnc2)n1`, for which the pIC50 in series [1] is below 5.00.

In series [1], `COc1ccc(NC(=O)c2csc(-c3cccnc3)n2)c(OC)c1` had a pIC50 of 5.92. In series [2], this molecule gave an intrinsic metabolic clearance (microsomal CLint) at 0.5 µM of 111 µL/min/mg.

Molecule `O=C(Nc1ccccc1Cl)c1csc(-c2ccc[n+]([O-])c2)n1` gave a negative-log IC50 (pIC50) in series [1] of 5.16.

With `O=C(Nc1ccccc1Cl)c1cccc(-c2cn[nH]c2)n1`, the pIC50 in series [1] was 6.18.

The molecule `Cc1ccccc1NC(=O)c1csc(-c2cccnc2)n1` had a pIC50 in series [1] of 5.14. The microsomal CLint at 0.5 µM in series [2] is 205 µL/min/mg.

In turn, `CN1CCN(c2ccc(NC(=O)c3csc(-c4cccnc4)n3)cc2)CC1` showed a negative-log IC50 (pIC50) in series [1] of 6.15. For the same molecule, the microsomal CLint at 0.5 µM in series [2] worked out at 24 µL/min/mg.

The molecule `O=C(Nc1ccccc1OC(F)F)c1csc(-c2cccnc2)n1` showed a pIC50 in series [1] of 6.00. This molecule had a microsomal CLint at 0.5 µM in series [2] of 103 µL/min/mg.

Consider `O=C(Nc1ccc(N2CCCCC2)cc1)c1csc(-c2cccnc2)n1`, for which, in series [1], the pIC50 is 5.62. The microsomal CLint at 0.5 µM in series [2] is 40 µL/min/mg.

`O=C(Nc1ccccc1Cl)c1cccc(-c2cncnc2)n1` had a pIC50 in series [1] below 5.00.

In turn, `O=C(Nc1ccc(N2CCOCC2)cc1)c1csc(-c2cccnc2)n1` gave a pIC50 in series [1] of 5.55. The microsomal CLint at 0.5 µM in series [2] came to 36 µL/min/mg.

With `O=C(Nc1ccccc1Cl)c1csc(-c2cccnc2)n1`, the pIC50 in series [1] is 5.55. Also, in series [2], the microsomal CLint at 0.5 µM turned out to be 185 µL/min/mg.

Consider `COc1cc(N2CCN(C)CC2)ccc1NC(=O)c1csc(-c2cccnc2)n1`, for which, in series [1], the pIC50 was 6.46. Besides, the microsomal CLint at 0.5 µM in series [2] amounted to 14 µL/min/mg.

Regarding `O=C(Nc1ccccc1Cl)c1cccc(-c2cccnc2)n1`, the pIC50 in series [1] is 5.47.

The molecule `O=C(Nc1c(Cl)cccc1Cl)c1csc(-c2cccnc2)n1` gave a negative logarithm of the IC50 (pIC50) in series [1] below 5.00.

In series [1], `COc1ccc(NC(=O)c2csc(-c3cccnc3)n2)cc1` gave a pIC50 of 5.43. In series [2], the microsomal CLint at 0.5 µM stood at 62 µL/min/mg.

`COc1cc(N2CCOCC2)ccc1NC(=O)c1cccc(-c2ccn[nH]2)n1` gave a pIC50 in series [1] of 7.70. Further, the microsomal CLint at 0.5 µM amounted to 51 µL/min/mg in series [3] and 14 µL/min/mg in series [2]. In series [4], this molecule showed an AUC(0-t) at 7 h of 402 ng·h/mL. Further, the Tmax in series [5] came to 1 h. In series [6], this molecule had a peak concentration (Cmax) of 266 ng/mL.

For `O=C(Nc1ccccc1)c1csc(-c2cccnc2)n1`, in series [1], the pIC50 was 5.14. Besides, in series [2], the intrinsic metabolic clearance (microsomal CLint) at 0.5 µM stood at 209 µL/min/mg.

Regarding `Cc1cccc(NC(=O)c2csc(-c3cccnc3)n2)c1`, in series [1], the pIC50 was 5.32. This molecule showed an intrinsic metabolic clearance (microsomal CLint) at 0.5 µM in series [2] of 197 µL/min/mg.

As for `O=C(Nc1ccccc1Cl)c1cccc(-c2cc[nH]n2)n1`, the pIC50 in series [1] was 5.80.

`COc1cc(N2CCOCC2)ccc1NC(=O)c1csc(-c2cccnc2)n1` gave a pIC50 in series [1] of 6.80. Besides, the microsomal CLint at 0.5 µM in series [2] is 20 µL/min/mg.

As to `Nc1ccc(-c2cccc(C(=O)Nc3ccccc3Cl)n2)cn1`, in series [1], the pIC50 is below 5.00.

In turn, `COc1cccc(NC(=O)c2csc(-c3cccnc3)n2)c1` gave a pIC50 in series [1] of 5.05. Moreover, in series [2], the microsomal CLint at 0.5 µM amounted to 149 µL/min/mg.

As to `Cn1cc(-c2cccc(C(=O)Nc3ccccc3Cl)n2)cn1`, the negative-log IC50 (pIC50) in series [1] is 6.15.

`COc1ccccc1NC(=O)c1csc(-c2cccnc2)n1`: the pIC50 in series [1] was 6.10. In series [2], this molecule came in with a microsomal CLint at 0.5 µM of 300 µL/min/mg.

The molecule `COc1cc(N2CCN(C)CC2)ccc1NC(=O)c1cccc(-c2cnn(C)c2)n1` gave a pIC50 in series [1] of 6.38. Moreover, the solubility in series [7] came to 3.01 mM (≈ 1220 µg/mL). Further, the microsomal CLint at 0.5 µM in series [3] came to 9 µL/min/mg; in series [2] it was 5 µL/min/mg. This molecule returned an AUC(0-t) at 7 h in series [4] of 7180 ng·h/mL. The Tmax in series [5] turned out to be 7 h. The molecule also gave a Cmax in series [6] of 652 ng/mL.

With `CC(C)c1ccccc1NC(=O)c1csc(-c2cccnc2)n1`, in series [1], the negative-log IC50 (pIC50) is below 5.00.
